Assay results taken from patent US11576914B2, “Drug for treating or preventing disorder caused by TGF-β signaling, and application thereof” (THE DOSHISHA, priority 2017, dated 2023).

Tests used:
[1] = tested on: caspase 3/7; experiment: Caspase-Glo 3/7 Assay in human corneal endothelial cells in the presence of AKP-001; type: cell-based; details: 24 hours
Protocol: Cultured human corneal endothelial cells were seeded at a rate of 1×10^4 per well in a 96-well plate coated with laminin-511E8, and the cells were cultured until reaching confluence at 37° C. (5% CO^2). For the medium, used was OptiMEM-I (invitrogen, 31985-088)+8% FBS (Thermo, SH30084.03)+5 ng/mL epidermal growth factor (invitrogen, PHG0311)+20 μg/mL L-ascorbic acid 2-sesquimagnesium phosphate hydrate (SIGMA, A8960)+200 mg/L calcium chloride dihydrate (SIGMA, C7902)+0.08% chondroitin sulfate (Wako Pure Chemical Industries, Ltd., 032-14613)+50 μg/mL gentamicin (invitrogen, 15710-064)+1 μM SB431542 (WAKO, 192-16541)+10 μM SB203580 (Cayman, 13067).
Upon reaching confluence, the culturing was further conducted for one more week with OptiMEM-I (invitrogen, 31985-088)+8% FBS (Thermo, SH30084.03)+20 μg/mL+200 mg/L calcium chloride dihydrate (SIGMA, C7902)+0.08% chondroitin sulfate (Wako Pure Chemical Industries, Ltd., 032-14613)+50 μg/mL gentamicin (invitrogen, 15710-064).
After one week, the medium was removed, and a medium with 0.1 μM, 0.3 μM, 1 μM, 3 μM, 10 μM, 30 μM and 100 μM AKP-001 included therein was added, followed by culturing for 24 hours. For the medium, used was OptiMEM-I (invitrogen, 31985-088)+8% FBS (Thermo, SH30084.03)+20 μg/mL+200 mg/L calcium chloride dihydrate (SIGMA, C7902)+0.08% chondroitin sulfate (Wako Pure Chemical Industries, Ltd., 032-14613)+50 μg/mL gentamicin (invitrogen, 15710-064).
After the observation, the caspase 3/7 activity was measured by Caspase-Glo 3/7 Assay according to the following procedure. The medium was discarded to 50 μl per well, and Caspase Glo 3/7 Assay Reagent (mixture of Caspase-Glo 3/7 Assay Buffer and Caspase-Glo 3/7 Assay Substrate) (Promega, G8091) solution was added to the 50 μl/well to reach 1:1 with the medium. The operations from this point on were conducted while light was blocked. […] After standing, 80 μl was transferred to an Assay plate (Corning, 3912, Assay plate 96 well, white polystyrene), and the […] was measured using GloMax-Multi Detection System (Promega, E7051).

[2] = tested on: cleaved caspase-3 and PARP; experiment: Western blot of caspase 3 and PARP in iFECD stimulated with TGF-β2; type: cell-based, human; details: 0.1 μM
Protocol: The medium was removed from the culture dish of cultured disease model cells, and the disease model cells were supplemented with 1×PBS (−) that was preheated to 37° C., followed by washing. This operation was repeated twice. The cells were supplemented with 1×PBS (−) again and incubated for 5 minutes at 37° C. (5% CO2). After the PBS (−) was removed, the cells were supplemented with 0.05% Trypsin-EDTA (nacalai tesque, 32778-34) and incubated for 5 minutes at 37° C. (5% CO2). The cells were then suspended in a medium, and collected by centrifugation at 1500 rpm for 3 minutes. Medium: DMEM (nacalai tesque, 08456-36)+10% FBS (Biowest, S1820-500)+1% P/S (nacalai tesque, 26252-94).
The Fuchs' endothelial corneal dystrophy patient-derived immortalized corneal endothelial cells were seeded in a 6-well plate at a rate of 1.5×10^5 cells per well and cultured at 37° C. (5% CO2) for 48 hours. DMEM+10% FBS+1% P/S was used as the medium. After 48 hours, the medium was removed, and SB203580 (Cayman, 13067), PH-797804 (Selleck Chemicals, S2726), VX-702 (Selleck Chemicals, 56005) and AKP-001 were added to DMEM+2% FBS+1% P/S so that all the final concentration was 0.1 μM, followed by culturing as 24-hour pretreatment.
After 24 hours, the medium was removed, and SB203580 (Cayman, 13067), PH-797804 (Selleck Chemicals, S2726), VX-702 (Selleck Chemicals, 56005) and AKP-001, together with 100 ng/ml recombinant human TGF-β2 (R & D systems, RND302-B2-002), were added to DMEM+2% FBS+1% P/S so that all the final concentration was 0.1 μM, followed by culturing for 24 hours. After 24 hours, the protein was subjected to Western blotting according to the following procedure to evaluate the effect on apoptosis.
The medium was collected on ice to collect free and dead cells as well. The solution obtained from washing the cells twice with 1×PBS (−) was also collected, followed by centrifugation of 800 g at 4° C. for 5 minutes. The supernatant was discarded to obtain precipitates. The washed cells were supplemented with a protein extraction buffer (RIPA; 50 mM Tris-HCl (pH 7.4), 150 mM NaCl, 1 mM EDTA, 0.1% SDS, 0.5% DOC, 1% NP-40) on ice to extract proteins. The precipitates from centrifuging the free and dead cells were also subsequently suspended together for extraction. The collected solution was pulverized three times for 30 seconds in cold water with a sonication device (BIORUPTOR, TOSHO DENKI) and centrifuged for 10 min at 4° C. at 15000 rpm to collect the supernatant of proteins.
Eight μg of the extracted protein was separated by SDS-PAGE and transferred onto a nitrocellulose membrane. A rabbit anti-Caspase 3 antibody (Cell Signaling, 9662), rabbit anti-PARP antibody (Cell Signaling, 9542), and mouse anti-GAPDH antibody (MBL, M171-3) were used as the primary antibodies. A peroxidase-labeled anti-rabbit antibody and anti-mouse antibody (GE Healthcare Biosciences, NA931V, NA934V) were used as the secondary antibodies. For the primary antibodies, the rabbit anti-PARP antibody was diluted 1000-fold, the rabbit anti-Caspase 3 antibody was diluted 1000-fold, and the mouse anti-GAPDH antibody was diluted 3000-fold. Further, the secondary antibody was diluted 5000-fold. Chemi Lumi ONE Ultra (Nacalai Tesque, 11644-40) was used for detection. The detected band strength was analyzed with a lumino image analyzer LAS-4000 mini (Fuji Film) and ImageQuant™ software (GE Healthcare).

O=C(Cc1c(F)cccc1Cl)Nc1onc(-c2ccc(F)cc2)c1-c1ccncn1 [AKP-001, 5-[(2-chloro-6-fluorophenyl)acetylamino]-3-(4-fluorophenyl)-4-(4-pyrimidinyl)isoxazole]
caspase 3/7 activity compared to the control group ([1]; 0.1 μM, 0.3 μM, 1 μM and 3 μM): no significant difference | caspase 3/7 activity compared to the control group ([1]; 10 μM, 30 μM and 100 μM): significantly activated | concentrations at which no damage to the cells is caused [1]: ≤ 10 µM | cleaved caspase-3 and PARP expression ([2]; 100 ng/ml TGF-β2, 24 hours): hardly any | caspase activity ([2]; TGF-β2): inhibited
